Data published in the NIST ThermoML archive (doi:10.1016/j.jct.2008.05.006).
Where “and” joins values, the source holds several entries; their conditions need not be identical. Equal values may be shown once.

Columns and labels:
[1] = molar heat capacity at constant pressure; details: 101.33 kPa, Small sample (50 mg) DSC
[2] = for vapor or sublimation pressure: Calculated from knudsen effusion weight loss; for Triple point temperature: DTA
[3] = Molar enthalpy of transition or fusion; details: Crystal 3; DSC

O=C1NC(=O)C(=O)N1 [parabanic acid]
Details | molar heat capacity at constant pressure [J/K/mol] | vapor or sublimation pressure
[1], 263.15 K, Crystal 3 | 153.78 | –
[1], 265.15 K, Crystal 3 | 154.68 | –
[1], 270.15 K, Crystal 3 | 157.16 | –
[1], 273.15 K, Crystal 3 | 158.53 | –
[1], 275.15 K, Crystal 3 | 159.48 | –
[1], 280.15 K, Crystal 3 | 161.53 | –
[1], 285.15 K, Crystal 3 | 163.59 | –
[1], 290.15 K, Crystal 3 | 165.7 | –
[1], 295.15 K, Crystal 3 | 167.6 | –
[1], 300.15 K, Crystal 3 | 169.81 | –
[1], 305.15 K, Crystal 3 | 172.08 | –
[1], 310.15 K, Crystal 3 | 174.5 | –
[1], 315.15 K, Crystal 3 | 177.24 | –
[1], 320.15 K, Crystal 3 | 179.33 | –
[1], 325.15 K, Crystal 3 | 180.62 | –
[1], 330.15 K, Crystal 3 | 182.52 | –
[1], 335.15 K, Crystal 3 | 184.84 | –
[1], 340.15 K, Crystal 3 | 187.21 | –
[1], 345.15 K, Crystal 3 | 189.26 | –
[1], 350.15 K, Crystal 3 | 191.69 | –
[1], 355.15 K, Crystal 3 | 193.8 | –
[1], 360.15 K, Crystal 3 | 196.01 | –
[1], 365.15 K, Crystal 3 | 197.59 | –
[1], 370.15 K, Crystal 3 | 200.07 | –
[1], 375.15 K, Crystal 3 | 201.42 | –
[1], 380.15 K, Crystal 3 | 203.59 | –
[1], 400.15 K, Crystal 2 | 211.5 | –
[1], 405.15 K, Crystal 2 | 213.6 | –
[1], 410.15 K, Crystal 2 | 215.93 | –
[1], 415.15 K, Crystal 2 | 216.68 | –
[1], 420.15 K, Crystal 2 | 218.83 | –
[1], 425.15 K, Crystal 2 | 220.28 | –
[1], 430.15 K, Crystal 2 | 222.89 | –
[1], 435.15 K, Crystal 2 | 225.62 | –
[1], 440.15 K, Crystal 2 | 227.43 | –
[1], 445.15 K, Crystal 2 | 229.93 | –
[1], 450.15 K, Crystal 2 | 232.06 | –
[1], 455.15 K, Crystal 2 | 234.43 | –
[1], 460.15 K, Crystal 2 | 236.96 | –
[1], 465.15 K, Crystal 2 | 239.26 | –
[1], 470.15 K, Crystal 2 | 241.31 | –
[1], 473.15 K, Crystal 2 | 243.13 | –
[2], 381.17 K, Crystal 3 | – | 0.0001133 kPa and 0.0001078 kPa
[2], 383.17 K, Crystal 3 | – | 0.0001373 kPa and 0.0001334 kPa
[2], 385.18 K, Crystal 3 | – | 0.0001672 kPa and 0.0001691 kPa and 0.000159 kPa
[2], 387.17 K, Crystal 3 | – | 0.0001972 kPa [middle of 4 runs]
[2], 389.17 K, Crystal 3 | – | 0.0002355 kPa and 0.0002336 kPa and 0.0002271 kPa
[2], 391.18 K, Crystal 3 | – | 0.000285 kPa and 0.000287 kPa
[2], 393.18 K, Crystal 2 | – | 0.0003353 kPa and 0.0003334 kPa
[2], 395.17 K, Crystal 2 | – | 0.0004133 kPa and 0.0004042 kPa
[2], 397.16 K, Crystal 2 | – | 0.0004877 kPa
[2], 397.18 K, Crystal 2 | – | 0.000484 kPa
[2], 399.17 K, Crystal 2 | – | 0.0005715 kPa
[2], 401.18 K, Crystal 2 | – | 0.0006635 kPa
[2], 403.17 K, Crystal 2 | – | 0.0008169 kPa
[2], 405.2 K, Crystal 2 | – | 0.0009469 kPa and 0.0009581 kPa
[2], 406.17 K, Crystal 2 | – | 0.001047 kPa and 0.001039 kPa

[2]
Details | Triple point temperature [K]
Crystal 1 | 520
Crystal 2 | 509.8
Crystal 3 | 392.3

Details | Molar enthalpy of transition or fusion [kcal/mol]
[3] | 0.502
